The values below come from patent US6686341B1, “Nutritional compositions which contain slightly negatively charged, non-digestible polysaccharides and use thereof for reducing transport through tight junctions” (N.V. Nutricia, priority 1999, dated 2004).

The assay deals with tight junctions (duodenum biopsies). Nature of the assay: Ussing chamber: HRP permeability of duodenum suction biopsies from children suffering from microvillus inclusion disease. The class given is cell-based, human. The conditions noted are these: after adding 4.2 g to the luminal compartment. From the text:
Suction biopsies of the duodenum were taken from two children suffering from microvillus inclusion disease.

On to carboxydextran [70 kD carboxydextran], for which the “HRP in the paracellular spaces or tight junctions by electron microscopy” value is listed as “No further HRP could be detected”.
